{
  "source": "patent US20080194640A1",
  "about": "“Optically Active Tetrahydronaphthalene Derivative” (priority 2005, published 2008)",
  "key": {"C5a receptor": {"biological_target": "T1, C5a receptor (Homo sapiens, UniProt P21730)", "T1 construct": "neutrophil fraction was separated from human peripheral intravenous blood; endogenous in cells; host or cells: human peripheral blood neutrophils (whole cells)", "T1 sequence (P21730 1-350)": "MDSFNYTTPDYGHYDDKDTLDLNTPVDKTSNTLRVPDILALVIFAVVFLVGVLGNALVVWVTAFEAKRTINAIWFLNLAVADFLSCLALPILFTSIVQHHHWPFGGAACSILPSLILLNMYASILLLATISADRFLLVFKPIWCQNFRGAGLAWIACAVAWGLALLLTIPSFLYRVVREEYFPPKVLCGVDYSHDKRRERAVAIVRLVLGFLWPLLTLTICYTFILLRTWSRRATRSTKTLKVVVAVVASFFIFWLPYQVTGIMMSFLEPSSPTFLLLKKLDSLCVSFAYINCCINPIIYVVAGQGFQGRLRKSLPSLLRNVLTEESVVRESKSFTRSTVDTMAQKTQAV", "assay": "C5a receptor binding assay ([125I]-human C5a, human peripheral blood neutrophil)", "conditions": "[125I]-C5a 200 pM, 4° C. for 2 hr, read-out: IC50 value, inhibition of [125I]-human C5a binding", "method": "The C5a receptor binding inhibitory action of C5a and the test compound was evaluated by a receptor binding assay comprising of human peripheral blood neutrophil, which expresses the C5a receptor, and [^125I]-human C5a (Amersham Pharmacia Biotech) in a MultiScreen (MILLIPORE). First, neutrophil fraction was separated from human peripheral intravenous blood using lympholyte-poly (Cedarlane), and suspended in a Binding buffer [50 mM HEPES, 1 mM CaCl2, 5 mM MgCl2, 0.5% bovine albumin (BSA, SIGMA), 0.02% NaN3 (pH 7.2)]. The binding assay was started by the addition of 1×10^5 cells/50 μL neutrophil suspension, 25 μL of a test compound solution (obtained by dissolving the test compound in N,N-dimethylformamide to a final concentration of 10 mmol/L and diluting with binding buffer), and 25 μL of [^125I]-C5a solution (final concentration 200 pM), to each well of the MultiScreen. […] After drying the MultiScreen, the radioactivity on the filter was measured using a gamma counter.\nThe rate of inhibition (% inhibition) of C5a binding by the test compound was calculated by the following formula using the count value obtained without addition of the test compound as Total, the count value obtained with addition of non-labeled C5a as Non, and the count value obtained with addition of the test compound as Test. […]"}, "[1]": {"system": "C5a stimulated neutrophil", "assay": "Production of reactive oxygen species in C5a-stimulated neutrophil", "assay_type": "cell-based", "conditions": "human neutrophil, C5a 3 nmol/L, luminol luminescence, 37° C.; read-out: IC50 value, inhibition of production of reactive oxygen species in C5a stimulated neutrophil", "method": "A neutrophil fraction was separately taken from human peripheral venous blood using Lympholyte-poly (Cedarlane), and suspended in Hank's Balanced Salt Solution (HBSS, GIBCO BRL) containing 1% fetal bovine serum (FBS) and 1 mmol/L luminol (Wako Pure Chemical Industries, Ltd.). Reactive oxygen species was measured using a luminometer (MicroLumat, Berthold) for 96-well plate. […] Then, 25 μL of C5a (final concentration 3 nmol/L) was added and luminescence produced by the reaction of the luminol and the reactive oxygen species was measured with the lapse of time for 15 min. The rate of inhibition (% inhibition) of the production of reactive oxygen species in C5a stimulated neutrophil by the test compound was calculated by the following formula, wherein the peak value of the production of reactive oxygen species derived by C5a without addition of the test compound is Max, the peak value of the production of reactive oxygen species without addition of the test compound and without C5a stimulation is Min, and the peak value of the production of reactive oxygen species derived by C5a with the addition of the test compound is Test. […]"}, "[2]": {"system": "collagen-induced arthritis", "assay": "Collagen-induced arthritis in monkey (articular swelling score)", "assay_type": "in vivo, cynomolgus monkey"}, "[3]": {"assay": "Evaluation of biological availability (bioavailability) in rat", "assay_type": "in vivo", "conditions": "for AUC: rat, fasted female SD rats, plasma", "method": "Free base•Form-I crystal was administered to female SD rats fasted from the day before the experiment and the plasma concentration was measured under the following conditions. As a result, the areas under blood concentration-time curve (AUC) of the drug after intravenous administration and oral administration are as shown in Table 1.\n• Dosing formulation: 0.5 mg/ml in aqueous physiological saline. • Dose: 1 mg/2 ml/kg • Administration method: bolus administration from the tail vein Collection of blood samples: About 0.1-0.2 mL of blood was taken from the cervical vein at 3 min, 10 min, 30 min, 1 hr, 2 hr, 4 hr and 6 hr after administration. The blood was centrifuged, and the plasma was separated.\n• Dosing formulation: 2 mg/ml suspension adjusted by gradually adding aqueous hydroxypropylmethylcellulose solution to the compound of the present invention thoroughly triturated in an agate mortar. • Dose: 10 mg/5 ml/kg • Administration method: Forcible administration into the stomach • Collection of blood samples: About 0.1-0.2 mL of blood was taken from the cervical vein at 30 min, 1 hr, 2 hr, 4 hr, 6 hr, 8 hr and 24 hr after administration. The blood was centrifuged, and the plasma was separated.\nThe plasma concentration of the administered compound was measured by LC-MS/MS.\nLC conditions • Column: Capcellpak C18 UG-120 (2.0φ mm×50 mm, S-5 μm, Shiseido Co., Ltd.) • Mobile phase: acetonitrile • Flow rate: 0.25 mL/min • Column temperature: room temperature • Auto sampler temperature set to: 25° C. • Gradient setting: • 0 min→0.6 min:25%→25% • 0.6 min→3.6 min:25%→75% • 3.6 min→6 min:75%→75% • 6 min→6.1 min:75%→25% • 6.1 min→9.5 min:25%→25% • MS/MS conditions • Ionization method: ESI • Capillary temperature: 350° C. • Sheath gas pressure: 80 psi • Spray voltage: 4.5 kV.\nThe plasma concentration of the racemate was measured by a similar method, and the biological availability was calculated and found to be 20%."}, "[4]": {"assay": "Solubility test (Japanese Pharmacopoeia Solution 2)", "assay_type": "physicochemical", "conditions": "for solubility after 30 min: Japanese Pharmacopoeia Solution 2, 37° C., shaken 30 min", "method": "An adequate amount of a sample was taken, and a test solution (The Japanese Pharmacopoeia Solution 2) was added to each to a concentration of about 1 mg/ml. The sample was dispersed by ultrasonication for 2 min, shaken at 37° C. for 30 min, and the solution was filtered through DISMIC13HP ([…]). The filtrate in the early stage (3 ml) was removed, the subsequent filtrate (500 μl) was precisely measured, and the dilution solution (water/acetonitrile/trifluoroacetic acid mixture=500:500:1, 500 μl) was accurately added to give a sample solution. The sample solution and the standard solution prepared in Experimental Example 5 were subjected to the measurement under the similar HPLC conditions as in Experimental Example 5."}, "[5]": {"assay": "Dissolution test (JP Dissolution Test Method 2, paddle method)", "assay_type": "physicochemical", "conditions": "JP second fluid 900 ml, paddle 50 rpm, 37° C., about 10 mg based on free form", "method": "The compounds obtained in Examples 22, 24 and 25, free base•Form-I crystal, and the racemate of the compound of Example 3 were subjected to a dissolution test, and the dissolution rate was compared. According to this test method, the amount of dissolution relative to the content of each compound in the test solution is expressed in the dissolution rate (%), which was measured over time.\nFor the method of adding each compound, the compound (about 10 mg based on free form) was precisely weighed and directly added to a vessel. As the test solution, The Japanese Pharmacopoeia second fluid (900 ml) was used, and the test was performed according to The Japanese Pharmacopoeia Dissolution Test Method 2 (Paddle Method) at 50 rpm. The test temperature was 37° C. After the start of the test, solution for dissolution (10 ml) was taken at suitable times, and a test solution (10 ml) heated to 37° C. was soon carefully added for compensation. The collected solution for dissolution was passed through a filter (DISMIC 13HP PTFE (0.45 μm); Toyo Roshi Kaisha). The filtrate in the early stage (5 ml) was removed, the subsequent filtrate (500 μl) was precisely measured, and the dilution solution (water/acetonitrile/trifluoroacetic acid mixture=500:500:1, 500 μl) was accurately added to give a sample solution.\nSeparately, about 10 mg of the free base•Form-I crystal was precisely weighed, and a dilution solution (water/acetonitrile/trifluoroacetic acid mixture=500:500:1) was added to 50 ml sharp. This solution (2.5 ml) was precisely measured, and a dilution solution (water/acetonitrile/trifluoroacetic acid mixture=500:500:1) was added to 50 ml sharp. This was used as the standard solution of free base•Form-I crystal (10 μg/ml). The sample solution and the standard solution were measured under the HPLC conditions shown below, the peak areas AT and AS of the free base•Form-I crystal in each solution were measured, and the dissolution rate was determined by the following formula.\nThe nth dissolution rate (%) of free base•Form-I crystal=Wn/W100%×100 • W1: the first dissolution amount (mg) of free base•Form-I crystal\n=(900×AT1)×WS/AS/1000 • Wn: the nth (n>1) dissolution amount (mg) of free base•Form-I crystal\n={900×ATn+10×(AT1+AT2 . . . +ATn−1)}×WS/AS/1000 • W100%: cast amount (mg) of drug substance • Ws: collected amount (mg) of free base•Form-I crystal standard product • As: peak area of free base•Form-I crystal in standard solution • AT1: peak area of free base•Form-I crystal in sample solution by the first sampling • ATn: peak area of free base•Form-I crystal in sample solution by the nth sampling. • For racemate, the dissolution rate was calculated based on the total value of S form and R form. […]"}},
  "note": "pIC50: −log10 of the molar value.",
  "data": [
    {"molecule": "CCn1cc(CN(C(=O)[C@H]2CCCc3c(O)cccc32)c2ccc(C(C)C)nc2)cn1", "note": "[Example 3, (1S)-(−)-N-[(1-ethyl-1H-pyrazol-4-yl)methyl]-5-hydroxy-N-(6-isopropylpyridin-3-yl)-1,2,3,4-tetrahydronaphthalene-1-carboxamide]", "values": [
      {"measurement": "pIC50", "setting": "C5a receptor", "result": 8.00},
      {"measurement": "pIC50", "setting": "[1]", "result": 8.55},
      {"measurement": "articular swelling score, average", "setting": "[2]; before administration, cynomolgus monkey, 10 per group, control group average 49", "result": 49},
      {"measurement": "articular swelling score, average", "setting": "[2]; day 14 of administration, oral, day 36 to day 50, control group average 82", "result": 61},
      {"measurement": "effect on aggravation of arthritis", "setting": "[2]; oral administration day 36 to day 50, cynomolgus monkey", "result": "significantly suppressed aggravation of arthritis"},
      {"measurement": "biological availability", "setting": "[3]; female SD rats, oral 10 mg/kg vs intravenous 1 mg/kg", "result": 62, "unit": "%"},
      {"measurement": "AUC", "setting": "[3]; intravenous administration 1 mg/kg", "result": 264, "unit": "ng·h/mL"},
      {"measurement": "AUC", "setting": "[3]; oral administration 10 mg/kg", "result": 1640, "unit": "ng·h/mL"},
      {"measurement": "solubility after 30 min", "setting": "[4]; listed as free base•Form-I crystal", "result": 66, "unit": "µg/mL"}
    ]},
    {"molecule": "CCn1cc(CN(C(=O)[C@H]2CCCc3c(O)cccc32)c2ccc(C(C)C)nc2)cn1", "note": "[Example 22, (1S)-(−)-N-[(1-ethyl-1H-pyrazol-4-yl)methyl]-5-hydroxy-N-(6-isopropylpyridin-3-yl)-1,2,3,4-tetrahydronaphthalene-1-carboxamide]", "values": [
      {"measurement": "dissolution rate (comparison)", "setting": "[5]", "result": "faster than that of the free base•Form-I crystal"}
    ]},
    {"molecule": "CCn1cc(CN(C(=O)[C@H]2CCCc3c(O)cccc32)c2ccc(C(C)C)nc2)cn1", "note": "[Example 23, (1S)-(−)-N-[(1-ethyl-1H-pyrazol-4-yl)methyl]-5-hydroxy-N-(6-isopropylpyridin-3-yl)-1,2,3,4-tetrahydronaphthalene-1-carboxamide]", "values": [
      {"measurement": "solubility relative to free base•Form-I crystal", "setting": "[4]; JP Solution 2, 37° C., 30 min", "result": 2.5, "unit": "fold"},
      {"measurement": "solubility relative to the racemate", "setting": "[4]; JP Solution 2, 37° C., 30 min", "result": "about 5 fold"},
      {"measurement": "solubility after 30 min", "setting": "[4]", "result": 165, "unit": "µg/mL"}
    ]},
    {"molecule": "CCn1cc(CN(C(=O)[C@H]2CCCc3c(O)cccc32)c2ccc(C(C)C)nc2)cn1.Cl", "note": "[Example 24, (1S)-(−)-N-[(1-ethyl-1H-pyrazol-4-yl)methyl]-5-hydroxy-N-(6-isopropylpyridin-3-yl)-1,2,3,4-tetrahydronaphthalene-1-carboxamide monohydrochloride]", "values": [
      {"measurement": "dissolution rate (comparison)", "setting": "[5]", "result": "faster than that of the free base•Form-I crystal"}
    ]},
    {"molecule": "Br.CCn1cc(CN(C(=O)[C@H]2CCCc3c(O)cccc32)c2ccc(C(C)C)nc2)cn1", "note": "[Example 25, (1S)-(−)-N-[(1-ethyl-1H-pyrazol-4-yl)methyl]-5-hydroxy-N-(6-isopropylpyridin-3-yl)-1,2,3,4-tetrahydronaphthalene-1-carboxamide monohydrobromide]", "values": [
      {"measurement": "dissolution rate (comparison)", "setting": "[5]", "result": "faster than that of the free base•Form-I crystal"}
    ]}
  ]
}
